In brackets after ≈: the same amount, converted by molar mass. Square brackets hold non-standard residues; d marks the D form. Peptide text beside a SMILES is read from it. * marks the point of attachment. ξ: configuration not given here. ξEnduracididine(βξ-OH,4'ξ) = N=C1NCC(C(O)C(N)C(=O)O)N1; X2 = OCC1OC(OC2C(CO)OC(*)C(O)C2O)C(O)C(O)C1O
What was measured:
Assay in all cases: in vitro antibacterial evaluation, MIC by broth dilution
Assay type in all cases: cell-based
[1] = system: Staphylococcus sp.; settings: broth dilution, 18 hours at 35° C.
In short: (§1)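 Broth dilution per NCCLS M7-A2 in Mueller-Hinton II medium, inoculum 5×10^5 CFU/mL, antibiotic range 64-0.06 μg/mL. MIC taken as lowest concentration inhibiting growth; Gram-positive panel includes recent clinical isolates resistant to methicillin, penicillin and/or vancomycin.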

[2] = system: Enterococcus sp.; settings: broth dilution, 18 hours at 35° C.
In short: as §1

[3] = system: Streptococcus sp.; settings: broth dilution, 18 hours at 35° C.
In short: as §1

[4] = system: Escherichia coli; settings: 18 hours at 35° C.
In short: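 Following National Committee for Clinical Laboratory Standards recommendations (M7-A2), susceptibility was measured by dilution in Muller-Hinton II […]. Bacteria were seeded at 5×10^5 CFU/mL against compound concentrations from 64 down to 0.06 μg/mL.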

N=C1NCC(C(O)C2NC(=O)C(Cc3ccc(OC4OC(CO)C(OC5OC(CO)C(O)C(O)C5O)C(O)C4O)cc3)NC(=O)C(Cc3ccccc3)NC(=O)CNC(=O)C(CO)NC(=O)C(C(O)C3CNC(=N)N3)NC2=O)N1 (stereo not drawn) [Example 296, Cyclo[glycylphenylalanyl-O-(4-O-hexopyranosylhexopyranosyl)tyrosyl-3-(2-iminoimidazolidin-4-yl)seryl-3-(2-iminoimidazolidin-4-yl)serylseryl]] (cyclo(GFY(X2)[ξEnduracididine(βξ-OH,4'ξ)][ξEnduracididine(βξ-OH,4'ξ)]S); configuration not given here)
MIC Coagulase Negative Staphylococcus (GC 4547) [1]: >128 µg/mL
MIC Coagulase Negative Staphylococcus (GC 4548) [1]: >128 µg/mL
MIC Coagulase Negative Staphylococcus (GC 4549) [1]: >128 µg/mL
MIC Coagulase Negative Staphylococcus (GC 4551) [1]: >128 µg/mL
MIC Staphylococcus aureus (ATCC 29213) [1]: >128 µg/mL
MIC Staphylococcus aureus (GC 1131) [1]: >128 µg/mL
MIC Staphylococcus aureus (GC 3051) [1]: >128 µg/mL
MIC Staphylococcus aureus (GC 3053) [1]: >128 µg/mL
MIC Staphylococcus aureus (GC 4541) [1]: >128 µg/mL
MIC Staphylococcus aureus (GC 4542) [1]: >128 µg/mL
MIC Staphylococcus aureus (GC 4544) [1]: >128 µg/mL
MIC Staphylococcus aureus (GC 4545) [1]: >128 µg/mL
MIC Staphylococcus aureus-SMITH (GC 4543) [1]: >128 µg/mL
MIC Staphylococcus haemolyticus (GC 4546) [1]: >128 µg/mL
MIC Staphylococcus aureus (ATCC 29213) ([1]; strain ATCC 29213): >128 µg/mL
MIC Staphylococcus aureus (GC 1131) ([1]; strain GC 1131): >128 µg/mL
MIC Staphylococcus aureus (GC 3051) ([1]; strain GC 3051): >128 µg/mL
MIC Staphylococcus aureus (GC 3053) ([1]; strain GC 3053): >128 µg/mL
MIC Staphylococcus aureus (GC 4541) ([1]; strain GC 4541): >128 µg/mL
MIC Staphylococcus aureus (GC 4542) ([1]; strain GC 4542): >128 µg/mL
MIC Staphylococcus aureus (GC 4544) ([1]; strain GC 4544): >128 µg/mL
MIC Staphylococcus aureus (GC 4545) ([1]; strain GC 4545): >128 µg/mL
MIC Staphylococcus haemolyticus (GC 4546) ([1]; strain GC 4546): >128 µg/mL
MIC Coagulase Negative Staphylococcus (GC 4547) ([1]; strain GC 4547): >128 µg/mL
MIC Coagulase Negative Staphylococcus (GC 4548) ([1]; strain GC 4548): >128 µg/mL
MIC Coagulase Negative Staphylococcus (GC 4549) ([1]; strain GC 4549): >128 µg/mL
MIC Coagulase Negative Staphylococcus (GC 4551) ([1]; strain GC 4551): >128 µg/mL
MIC Staphylococcus aureus-SMITH (GC 4543) ([1]; strain SMITH GC 4543): >128 µg/mL
MIC Enterococcus avium (GC 4558) ([2]; Enterococcus avium (GC 4558)): 128 µg/mL (≈ 114 µM)
MIC Enterococcus faecalis (ATCC 29212) ([2]; Enterococcus faecalis (ATCC 29212)): >128 µg/mL
MIC Enterococcus faecalis (GC 4553) ([2]; Enterococcus faecalis (GC 4553)): >128 µg/mL
MIC Enterococcus faecalis (GC 4554) ([2]; Enterococcus faecalis (GC 4554)): >128 µg/mL
MIC Enterococcus faecalis (GC 6189) ([2]; Enterococcus faecalis (GC 6189)): >128 µg/mL
MIC Enterococcus faecium (GC 2243) ([2]; Enterococcus faecium (GC 2243)): >128 µg/mL
MIC Enterococcus faecium (GC 4556) ([2]; Enterococcus faecium (GC 4556)): >128 µg/mL
MIC Enterococcus faecium (GC 4557) ([2]; Enterococcus faecium (GC 4557)): 128 µg/mL (≈ 114 µM)
MIC Enterococcus faecalis (ATCC 29212) ([2]; strain ATCC 29212): >128 µg/mL
MIC Enterococcus faecalis (GC 2242) ([2]; strain GC 2242): >128 µg/mL
MIC Enterococcus faecium (GC 2243) ([2]; strain GC 2243): >128 µg/mL
MIC Enterococcus faecalis (GC 2691) ([2]; strain GC 2691): >128 µg/mL
MIC Enterococcus faecalis (GC 3059) ([2]; strain GC 3059): >128 µg/mL
MIC Enterococcus faecalis (GC 4552) ([2]; strain GC 4552): >128 µg/mL
MIC Enterococcus faecalis (GC 4553) ([2]; strain GC 4553): >128 µg/mL
MIC Enterococcus faecalis (GC 4554) ([2]; strain GC 4554): >128 µg/mL
MIC Enterococcus faecium (GC 4556) ([2]; strain GC 4556): >128 µg/mL
MIC Enterococcus faecium (GC 4557) ([2]; strain GC 4557): 128 µg/mL (≈ 114 µM)
MIC Enterococcus avium (GC 4558) ([2]; strain GC 4558): 128 µg/mL (≈ 114 µM)
MIC Enterococcus faecalis (GC 6189) ([2]; strain GC 6189): >128 µg/mL
MIC Streptococcus pneumoniae (ATCC 6301) ([3]; strain ATCC 6301): >128 µg/mL
MIC Streptococcus pneumoniae (GC 1894) ([3]; strain GC 1894): 128 µg/mL (≈ 114 µM)
MIC Streptococcus pyogenes (GC 4563) ([3]; strain GC 4563): >128 µg/mL
MIC Streptococcus agalactiae (GC 4564) ([3]; strain GC 4564): >128 µg/mL
MIC Streptococcus pneumoniae (GC 4565) ([3]; strain GC 4565): >128 µg/mL
MIC Escherichia coli (ATCC 25922) ([4]; Escherichia coli (ATCC 25922)): >128 µg/mL
MIC Escherichia coli (GC 4559) ([4]; Escherichia coli (GC 4559)): >128 µg/mL
MIC Escherichia coli (GC 4560) ([4]; Escherichia coli (GC 4560)): >128 µg/mL

Reference: patent US6914045B2, “Glycopeptide antibiotics” (Wyeth Holdings Corporation, priority 2001, dated 2005)
